In general, EC50 refers to the concentration that produces a half-maximal response. By AC50 is commonly meant the concentration at which the activity in the assay is half-maximal. What is called CC50 is the concentration that lowers cell viability or growth by half. By IC50 is commonly meant the concentration that inhibits the measured activity by half.

The record followed here is ChEMBL document CHEMBL1201862, “PubChem BioAssay data set” (2004).

Structures are written as SMILES. Active and inactive are the calls of the source.

One assay concerns HEK293. The assay is described as follows: Fluorescence-based counterscreen for potentiators or agonists of NPY-Y2: cell-based high-throughput dose response assay to identify inhibitors of cyclic nucleotide gated ion channel (CNGC) activity. In this assay, the parental HEK293 cell line transfected with a cyclic-nucleotide gated ion channel (CNGC)-based cAMP sensor is used to measure inhibition of isoproterenol-induced CNGC activity by test compound. Type of assay: functional. The following applies: Homo sapiens.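 Also: stimulus is 1 µM isoproterenol at EC100 plus PDE inhibitor Ro 20-1724 at 25 µM.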

Assay [1] concerns Streptococcus sp. 'group A'. In words: growth inhibition of control SK(-) GAS strain, dose response, counter-screen for streptokinase expression inhibitor project, luminescence, kanamycin, BacTiterGlo, confirmation (AID 1900). The format is functional, organism-based. (In general: A counterscreen serves to expose hits that act by an unwanted route or on another target.)
For the next assay, the system named is Streptococcus. In words: Group A Streptococcus viability loss, dose response, counter-screen for streptokinase expression inhibitor project, luminescence, BacTiterGlo (AID 1915).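 Also: potency for reduction of bacterial viability or growth.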 Type of assay: functional, organism-based.
Assay [2] is described as follows: P. falciparum 3D7-ScDHODH growth inhibitors, dose response, SYBR Green, dry powder samples (AID 1159570).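 Also: parasite growth measured after 72 hours of compound exposure.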 The format is functional, cell-based.
Assay [3] in a line: P. falciparum Dd2 growth inhibitors, dose response, SYBR Green, cherry-picked samples (AID 1159567). Type of assay: functional, cell-based.
Assay [4] in a line: P. falciparum Dd2 growth inhibitors, dose response, SYBR Green, dry powder samples (AID 1159566).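 Also: potency for growth inhibition with lower SYBR green DNA signal.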 The format is functional, cell-based.
Assay [5] can be described thus: P. falciparum ATP4 D1247Y mutant growth inhibitors, dose response, NITD609-resistant line, SYBR Green, dry powder (AID 1159571).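 Also: parasites synchronized at ring stage by sorbitol before testing.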 The format is functional, cell-based.
Assay [6] in a line: HEp-2 cell cytotoxicity, dose response, cytotoxicity control for RSV inhibitor project, HTS (AID 2410). Type of assay: functional. The following applies: human respiratory syncytial virus.
The nature of assay [7]: HeLa cell cytotoxicity, dose response, cytotoxicity control for MgcRacGAP inhibitor project (AID 624300). The format is functional.
For assay [8], the target named is T1, Rac GTPase-activating protein 1 (Homo sapiens, UniProt Q9H0H5).
T1 sequence (Q9H0H5 whole entry): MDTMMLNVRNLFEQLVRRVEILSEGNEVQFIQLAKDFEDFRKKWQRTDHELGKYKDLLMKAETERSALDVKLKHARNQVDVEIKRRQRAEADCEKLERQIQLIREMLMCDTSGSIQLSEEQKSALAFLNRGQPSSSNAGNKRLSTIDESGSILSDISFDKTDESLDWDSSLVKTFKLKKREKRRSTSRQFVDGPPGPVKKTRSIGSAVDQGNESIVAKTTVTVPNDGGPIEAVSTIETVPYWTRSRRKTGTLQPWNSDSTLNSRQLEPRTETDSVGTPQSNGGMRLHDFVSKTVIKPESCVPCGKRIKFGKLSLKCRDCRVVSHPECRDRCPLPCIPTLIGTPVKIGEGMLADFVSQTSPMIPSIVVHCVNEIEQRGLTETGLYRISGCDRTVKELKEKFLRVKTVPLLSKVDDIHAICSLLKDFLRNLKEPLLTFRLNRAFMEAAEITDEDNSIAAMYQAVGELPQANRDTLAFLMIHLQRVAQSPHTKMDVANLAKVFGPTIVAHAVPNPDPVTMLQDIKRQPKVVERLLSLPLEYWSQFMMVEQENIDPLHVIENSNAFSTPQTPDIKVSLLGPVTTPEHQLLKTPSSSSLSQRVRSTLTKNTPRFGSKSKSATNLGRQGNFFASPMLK
In words: MgcRacGAP GTPase-activating activity inhibitors, confirmation, biochemical, ADP Hunter fluorescence, primary and confirmatory (AID 624330). The format is functional.

Assay [9] deals with NAD-dependent protein deacylase sirtuin-5, mitochondrial (Homo sapiens, UniProt Q9NXA8). In words: SIRT5 desuccinylase inhibitors, dose response, biochemical, fluorescence imaging, cherry-pick, set 5 (AID 720591).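 Also: desuccinylation of succinyl peptide AMC substrate read as fluorescence after trypsin release; potency of inhibitors that lower fluorescence and may act on trypsin instead.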
NAD-dependent protein deacylase sirtuin-5, mitochondrial, sequence (Q9NXA8 whole entry): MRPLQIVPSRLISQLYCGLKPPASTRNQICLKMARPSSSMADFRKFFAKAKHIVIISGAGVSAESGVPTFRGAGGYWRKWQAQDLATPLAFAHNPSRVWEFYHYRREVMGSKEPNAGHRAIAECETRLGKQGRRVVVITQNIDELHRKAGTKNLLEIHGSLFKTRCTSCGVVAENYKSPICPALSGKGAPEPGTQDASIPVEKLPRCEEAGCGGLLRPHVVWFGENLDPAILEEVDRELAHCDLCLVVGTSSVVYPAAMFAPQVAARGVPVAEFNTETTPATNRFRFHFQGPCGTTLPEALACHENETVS
The target of another assay is Prothrombin (Homo sapiens, UniProt P00734). In words: Thrombin 1536 HTS Dose Response Confirmation. [Related pubchem assays: 1046 (Thrombin 1536 HTS; hits were confirmed in this assay)]. The format is functional.
The target of assay [10] is T2, Neuropeptide Y receptor type 2 (Homo sapiens, UniProt P49146).
T2 sequence (P49146 whole entry): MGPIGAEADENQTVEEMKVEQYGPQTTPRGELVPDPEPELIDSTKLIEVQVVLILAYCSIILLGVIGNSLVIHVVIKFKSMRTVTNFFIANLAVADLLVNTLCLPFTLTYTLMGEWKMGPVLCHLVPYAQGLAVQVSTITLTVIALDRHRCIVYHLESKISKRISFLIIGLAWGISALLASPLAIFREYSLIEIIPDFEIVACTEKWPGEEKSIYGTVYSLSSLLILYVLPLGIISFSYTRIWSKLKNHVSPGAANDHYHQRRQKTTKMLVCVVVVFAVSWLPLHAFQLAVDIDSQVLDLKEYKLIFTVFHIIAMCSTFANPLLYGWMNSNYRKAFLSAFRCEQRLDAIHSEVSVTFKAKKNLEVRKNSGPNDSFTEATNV
In words: Fluorescence-based cell-based high-throughput dose response assay for agonists of NPY-Y2. [Related pubchem assays: 1703 (Screening assay (CNGC inhibitors).), 1359 (Screening assay (NPY-Y2 potentiators or agonists).), 1304 (Screening assay (NPY-Y1 potentiators or agonists).), 1710 (Screening assay (NPY-Y2 agonists).), 1791 (Summary AID.)]. Type of assay: functional.

The next assay concerns the target T3, Streptokinase A (Streptococcus pyogenes serotype M1, UniProt P10520).
T3 sequence (P10520 whole entry): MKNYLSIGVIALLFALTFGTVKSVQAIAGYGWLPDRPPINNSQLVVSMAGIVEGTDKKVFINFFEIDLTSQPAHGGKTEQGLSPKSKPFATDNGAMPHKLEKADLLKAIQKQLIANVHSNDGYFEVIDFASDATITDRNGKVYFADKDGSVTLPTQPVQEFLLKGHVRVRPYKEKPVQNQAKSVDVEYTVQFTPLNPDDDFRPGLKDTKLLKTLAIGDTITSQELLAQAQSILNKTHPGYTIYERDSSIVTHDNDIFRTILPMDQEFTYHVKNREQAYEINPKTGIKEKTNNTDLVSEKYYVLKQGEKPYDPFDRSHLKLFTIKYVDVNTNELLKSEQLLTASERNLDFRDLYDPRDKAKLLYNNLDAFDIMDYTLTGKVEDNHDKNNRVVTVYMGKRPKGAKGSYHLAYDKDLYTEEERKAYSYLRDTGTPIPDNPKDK
In words: S. pyogenes streptokinase expression inhibitors, potency, dose response, plasminogen activation absorbance, OD405 (AID 1914).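 Also: secreted streptokinase activity via plasminogen activation per viability signal from cell pellet.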 The format is functional, Streptococcus pyogenes M1 GAS.

Assay [11] addresses T4, Neuropeptide Y receptor type 1 (Homo sapiens, UniProt P25929).
T4 sequence (P25929 whole entry): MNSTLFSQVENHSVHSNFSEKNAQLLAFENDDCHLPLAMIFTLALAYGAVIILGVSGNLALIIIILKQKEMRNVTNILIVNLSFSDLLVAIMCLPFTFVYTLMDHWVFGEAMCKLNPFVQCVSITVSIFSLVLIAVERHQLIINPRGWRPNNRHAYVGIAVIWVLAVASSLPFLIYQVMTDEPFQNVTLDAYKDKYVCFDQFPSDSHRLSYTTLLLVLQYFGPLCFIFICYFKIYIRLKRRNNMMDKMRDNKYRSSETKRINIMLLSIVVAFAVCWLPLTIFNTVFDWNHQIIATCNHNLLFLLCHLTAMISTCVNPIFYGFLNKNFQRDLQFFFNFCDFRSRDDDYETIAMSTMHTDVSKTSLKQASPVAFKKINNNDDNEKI
The assay is described as follows: Fluorescence-based counterscreen for agonists of NPY-Y2: cell-based high-throughput dose response assay for agonists of NPY-Y1. The format is functional.

Assay [12] addresses T5, Replicative DNA helicase DnaB (Mycobacterium tuberculosis, UniProt P9WMR3).
T5 sequence (P9WMR3 whole entry): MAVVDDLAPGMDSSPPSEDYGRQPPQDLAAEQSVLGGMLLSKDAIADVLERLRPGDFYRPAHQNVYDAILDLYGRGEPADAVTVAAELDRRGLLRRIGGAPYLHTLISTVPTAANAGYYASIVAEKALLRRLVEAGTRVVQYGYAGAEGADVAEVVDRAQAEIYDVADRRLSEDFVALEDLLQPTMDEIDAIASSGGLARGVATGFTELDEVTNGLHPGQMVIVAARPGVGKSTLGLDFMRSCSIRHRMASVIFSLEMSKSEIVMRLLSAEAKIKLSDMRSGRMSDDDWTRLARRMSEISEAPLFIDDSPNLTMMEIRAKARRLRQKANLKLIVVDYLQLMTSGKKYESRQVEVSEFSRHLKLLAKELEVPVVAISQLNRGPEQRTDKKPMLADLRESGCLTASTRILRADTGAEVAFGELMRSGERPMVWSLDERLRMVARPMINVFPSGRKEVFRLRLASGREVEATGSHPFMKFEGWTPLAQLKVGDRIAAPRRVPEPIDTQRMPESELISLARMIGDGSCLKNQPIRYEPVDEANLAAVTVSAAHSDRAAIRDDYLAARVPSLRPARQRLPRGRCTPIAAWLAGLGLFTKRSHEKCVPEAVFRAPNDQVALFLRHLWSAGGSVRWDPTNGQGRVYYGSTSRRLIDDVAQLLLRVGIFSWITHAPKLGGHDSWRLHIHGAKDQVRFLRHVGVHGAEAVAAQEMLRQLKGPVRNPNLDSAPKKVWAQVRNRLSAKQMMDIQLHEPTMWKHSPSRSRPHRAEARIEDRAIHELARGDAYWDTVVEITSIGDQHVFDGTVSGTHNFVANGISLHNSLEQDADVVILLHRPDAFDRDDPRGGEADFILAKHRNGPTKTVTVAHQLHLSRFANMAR
In words: DnaB intein splicing inhibitors, dose response, biochemical, cell-free fluorescence (AID 449749). The format is functional.

For a further assay, the target named is T6, Protein RecA (Mycobacterium tuberculosis, UniProt P9WHJ3).
T6 sequence (P9WHJ3 whole entry): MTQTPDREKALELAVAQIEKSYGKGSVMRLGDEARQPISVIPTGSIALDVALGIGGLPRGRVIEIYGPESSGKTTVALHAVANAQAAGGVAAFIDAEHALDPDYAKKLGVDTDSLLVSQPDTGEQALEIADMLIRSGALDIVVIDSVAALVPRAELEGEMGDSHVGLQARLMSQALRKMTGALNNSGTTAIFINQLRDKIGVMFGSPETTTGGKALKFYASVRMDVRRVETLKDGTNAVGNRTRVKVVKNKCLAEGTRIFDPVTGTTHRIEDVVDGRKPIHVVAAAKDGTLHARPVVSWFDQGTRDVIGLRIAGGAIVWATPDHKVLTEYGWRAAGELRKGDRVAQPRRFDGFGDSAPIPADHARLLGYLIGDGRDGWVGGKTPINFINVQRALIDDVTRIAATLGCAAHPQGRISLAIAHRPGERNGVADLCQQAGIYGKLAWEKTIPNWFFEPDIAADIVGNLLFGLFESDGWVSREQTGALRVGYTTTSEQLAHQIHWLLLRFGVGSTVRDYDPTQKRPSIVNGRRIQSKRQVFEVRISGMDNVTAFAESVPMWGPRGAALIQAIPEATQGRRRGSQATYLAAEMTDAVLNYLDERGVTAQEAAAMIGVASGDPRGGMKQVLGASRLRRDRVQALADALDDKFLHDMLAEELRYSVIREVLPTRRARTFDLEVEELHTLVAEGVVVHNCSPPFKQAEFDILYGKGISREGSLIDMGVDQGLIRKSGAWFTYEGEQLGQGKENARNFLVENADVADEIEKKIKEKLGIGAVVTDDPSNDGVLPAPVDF
In words: Fluorescence Cell-Free Homogeneous Dose Retest to Identify Inhibitors of RecA-Intein Splicing Activity. [Related pubchem assays (depositor defined):AID2097, AID2223, AID489010, AID492950]. The format is functional.

For `CC(=O)C(=Nc1ccc(Cl)cc1Cl)NNc1cccc(Cl)c1`, the figures for the EC50 (with HEK293; in assay [1]; in the assay on Streptococcus) were > 35.4 µM (not active), 3.14 µM (active) and > 150 µM (not active), respectively.
Consider `C/C=C/c1ccccc1[C@H]1[C@@H](C#N)N(C(=O)NC2CCCC2)[C@H]1CO`, for which the AC50 is 33.8 µM (active) in assay [2], 1.85 µM (active) in [3], 0.952 µM (active) in [4] and 1.58 µM (active) in [5].
On to `Nc1ccc(Br)c[n+]1Cc1cccc2cccnc12`, for which the CC50 in [6] was > 50 µM (active). The IC50 in “cells” is 46.7 µM (active).
As to `CCN(CC)c1ccc(S(=O)(=O)N2CCOCC2)cc1NC(=O)CN1CCN(Cc2ccccc2)CC1`, the CC50 in assay [7] is 100 µM (active). The IC50 in [8] is 84.5 µM (active). Moreover, in assay [9], the AC50 is 18.1 µM (active).
On to `CCOC(=O)c1ccc(NC(=O)NC2CCN(CC(=O)NCc3ccc4c(c3)OCO4)CC2)cc1`, for which the IC50 at Prothrombin is > 50 µM (not active).
The same measure, in the same setting: then `Cc1ccc(C)c(NC(=O)C2Cc3ccccc3CN2C(=O)OCc2ccccc2)c1` (stereo unspecified), with > 50 µM (not active).
Turning to `O=C1c2ccccc2C(=O)N1CCCCN(C(=O)c1ccco1)c1ccc(Cl)cc1`, the IC50 in “cells” was 11.8 µM (active).
Consider `CC(=O)C(=NNc1cccc(Cl)c1)Nc1ccc(Cl)cc1Cl`, for which the EC50 in assay [10] is 21.2 µM (not active); on Streptokinase A, 2.72 µM (active); in [11], 12.6 µM (not active); at Protein RecA it was 49 µM (active). In addition, the AC50 in [12] was 379 µM (active).
Consider `Cc1ccc(C(=O)n2nc(-c3ccco3)nc2N)cc1`, for which the IC50 at Prothrombin was 0.741 µM (active).
